In patent US7691416B2, “Methods of treating vascular disease” (priority 2002, dated 2010):

Tested on: graft infiltration by activated leukocytes
Test: Immunostaining and cell population analysis of the adventitia of aortic grafts
Assay type: in vivo, rat
Conditions: 56 days after transplantation
Description: Animals. Male (250-350 g) Brown Norway rats (RT1^n) were used as aortic graft donors and male (250-350 g) Lewis rats (RT11) as recipients. Dawley (400-450 g) rats were used in the balloon injury model. Adult male C57BL/6, C57/S129, p21^−/− and p53^−/− null mice were purchased from Jackson Laboratory (Bar Harbor, Me.). mkk3^(−/−) null mice were generated as described Lu et al. (EMBO. 18:1845-1857 (1999)). The inos^−/− and enos^−/− mice were bred at the University of Pittsburgh. Aortic transplant model. Aortic transplantation was performed as described in Shimizu et al. (Nat. Med. 7:738-741 (2001)). Briefly, 3 to 4 cm of descending aorta was harvested from the donor and implanted between the renal arteries and the aortic bifurcation of the recipient. Both edges of the native abdominal aorta were ligated. Balloon injury model. Balloon angioplasty was carried out as described in Murakami et al. (Atherosclerosis 157:361-368 (2001)). Briefly, a 2 Fr. arterial embolectomy catheter (Baxter, Chicago, Ill.) was inserted into the common carotid artery, and injury was created by inflating the balloon to 5 atmospheres of pressure for 5 minutes. The arteries were flushed and the external carotid artery was ligated, ensuring return of blood flow through the common and internal carotid arteries. Injury of the vessel wall and subsequent pathological analysis was made in a manner that was blinded to the treatment group. CO exposure. CO was delivered to animals as described in Otterbein et al. (Nat. Med. 6:422-428 (2000)). […] In the balloon injury model, rats received either no pretreatment or were exposed to CO (250 ppm) for one hour prior to injury. Following surgery rats were housed in room air for two weeks. Cells. Primary mouse and rat smooth muscle cells (SMC) were isolated and cultured as described in Laubach et al. (Proc Natl Acad Sci USA 92:10688-9 (1995)). Mouse SMC isolated from HO-1^−/− mice were obtained as described in Duckers et al. (Nat. Med. 7:693-698 (2001)). Cell treatment and reagents. Guanylate cyclase inhibitor 1H(1,2,4) oxadiazolo(4,3-a)quinoxalin-1 (ODQ; Calbiochem-Novabiochem, San Diego, Calif.; 10-100 μM) and p38 MAPK inhibitor pyridinyl imidazol SB203580 (Calbiochem; 5-20 μM) were dissolved in DMSO. The cGMP analogue 8-bromo-cGMP sodium salt (8-Br-cGMP; Sigma-Aldrich, St. Louis, Mo.; 10-100 μM) and the PKG inhibitor (10-100 μM; Alexis Biochemicals) were dissolved in water. […] [^3H]thymidine incorporation was measured by scintillation spectroscopy and presented as mean counts/min/well. […] Areas from eight to ten captured images were calculated using digital imaging software as number of pixels corresponding to those areas. Twenty-four to forty-eight sections from each group were statistically analyzed with SPSS software version 10. […]

[1] = adventitia of allogeneic aortic grafts

## [C-]#[O+] [CO, carbon monoxide]
[1]
  Accumulation of CD45+/CD3+ T cells, inhibition versus air treated controls: 57±22%
  Accumulation of CD45+/CD68+ monocyte/macrophages, inhibition versus air treated controls: 65±24%
  Expression of MHC II antigens and CD54/ICAM-1 (Mø activation): inhibited
Maximal effect, 700 to 1000 ppm of CO
  Graft infiltration by activated leukocytes (CD45+), inhibition versus air treated controls: 52±20%
